US20240368122A1, “JAK2 INHIBITORS AND METHODS OF USE THEREOF” (RELAY THERAPEUTICS, INC., priority 2021, published 2024)
pIC50, pKd: −log10 of the molar value. Like-named read-outs stand apart in the source and are kept apart here.

Legend:
[1] = system: TF1 JAK2 V617F STAT3 reporter; test: Cellular TF1 STAT3 assay (luciferase reporter), JAK2 V617F; assay type: cell-based; details: read-out: Cell PD-TF1 JAK2 V617F STAT3 (IC50)
Outline: (§1)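 Inhibition of JAK2 V617F-mediated STAT3/STAT5 signalling is measured by reporter luminescence in TF1 erythroleukemia cells treated overnight (18-20 h) with a 10-point compound series; DMSO serves as vehicle.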

[2] = molecular target: T1, JAK2 JH2 WT (V536-D812) [W659A, W777A, F794H solubilizing mutations] (Homo sapiens, UniProt O60674, F794H/W659A/W777A); test: Surface Plasmon Resonance (SPR) binding assay, JAK2 JH2 domain
T1 construct: **JAK2 JH2 WT (V536-D812) [W659A, W777A, F794H solubilizing mutations]; C-thrombin-avi-His6; thrombin cleavage site (C); His6 (C); purchased Biortus
Outline: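 Kinetics came from 1:1 fits of single-cycle runs at 20 °C: four 3-fold dilutions from 5 uM for JH1 or 500 nM for JH2, 60 s association, and 300 s or 1200 s dissociation respectively. Protein was freshly captured per compound in the presence of 10 uM stabilizer compound, with running buffer of pH 7.5 HEPES/NaCl/glycerol/DTT plus 2% DMSO.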

[3] = system: TF1 JAK2 V617F STAT5 reporter; test: Cellular TF1 STAT5 assay (luciferase reporter), JAK2 V617F; assay type: cell-based; details: read-out: Cell PD TF1 V617F STAT5 (IC50)
Outline: as §1

JAK2 JH1 WT (T842-G1132) = molecular target: T2, JAK2 JH1 WT (T842-G1132) (Homo sapiens, UniProt O60674); test: Surface Plasmon Resonance (SPR) binding assay, JAK2 JH1 domain
T2 construct: *JAK2 JH1 WT (T842-G1132) N-His60-avi-TEV; His6 (N); TEV cleavage site (N); purchased Biortus
Description: Selected compounds of the present disclosure were tested in a Surface Plasmon Resonance (SPR) Assay to measure their binding kinetics and affinity for proteins of interest.
Prepare buffer: 50 mM HEPES pH 7.5, 150 mM NaCl, 0.05% (v/v) Tween, and 10% (v/v) glycerol were combined and pH was adjusted to 7.5, then filtered. 5 mM DTT, was added, and buffer without DMSO was reserved for compound resuspension. 2% (v/v) DMSO was added for assay buffer, and separately 1% DMSO was used to make buffer for resuspending compounds.
Prepare compounds: Using a Bravo liquid handler, 99 μL of 1% (v/v) DMSO assay buffer was added to 1 μL compounds in DMSO.
Run 8K Method: Biotin CAPture (CAP) chip surface was regenerated prior to run by: Inserting CAP chip into Biacore 8K, prime machine with assay buffer with 2% (v/v) DMSO; Setting instrument temperature to 20° C.; Conditioning surface with NaOH/GdnHCl reagents from CAP chip kit (60 seconds, 10 μL/min); and Capturing oligo-Streptavidin (SA) reagent from CAP kit (600 seconds, 1 μL/min), expected capture ˜2500 RU. JAK2 JH1 or JH2 protein was immobilized by preparing a sample of 0.5 uM JH1 or 0.4 uM JH2 protein diluted in assay buffer without DMSO and supplemented with 10 uM of a selected compound of the invention as a stabilizer (370 seconds, 5 uL/min), expected capture ˜1000 RU. Remaining biotin sites on SA were blocked with 1 uM biotin (30 seconds, 20 uL/min), then equilibrated for 1800 seconds at 100 uL/min. Compounds being assayed were run in single cycle kinetics: 4 doses with a top concentration of 5 uM (JH1) or 500 nM (JH2), dilution factor of 3, at 20° C., for a contact time of 60 seconds, and a dissociation time of 300 seconds (JH1) or 1200 seconds (JH2), at a flow rate of 30 uL/min. The surface was completely regenerated after each compound is run, and JH1 or JH2 protein was immobilized fresh prior to each new compound. Data were fitted kinetically with 1:1 binding model using Biacore Insight Evaluation Software.

[4] = Homo sapiens, TF-1, TF1 cells, JAK2 V617F

T1 sequence (O60674 536-812 W659A/W777A/F794H): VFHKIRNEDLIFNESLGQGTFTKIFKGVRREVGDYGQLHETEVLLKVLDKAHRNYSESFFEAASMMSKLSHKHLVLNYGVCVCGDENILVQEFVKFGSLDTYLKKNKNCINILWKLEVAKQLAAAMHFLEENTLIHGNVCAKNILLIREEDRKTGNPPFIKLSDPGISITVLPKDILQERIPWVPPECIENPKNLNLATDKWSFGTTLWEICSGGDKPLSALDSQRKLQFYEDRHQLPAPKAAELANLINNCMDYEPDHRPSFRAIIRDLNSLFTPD
T2 sequence (O60674 842-1132): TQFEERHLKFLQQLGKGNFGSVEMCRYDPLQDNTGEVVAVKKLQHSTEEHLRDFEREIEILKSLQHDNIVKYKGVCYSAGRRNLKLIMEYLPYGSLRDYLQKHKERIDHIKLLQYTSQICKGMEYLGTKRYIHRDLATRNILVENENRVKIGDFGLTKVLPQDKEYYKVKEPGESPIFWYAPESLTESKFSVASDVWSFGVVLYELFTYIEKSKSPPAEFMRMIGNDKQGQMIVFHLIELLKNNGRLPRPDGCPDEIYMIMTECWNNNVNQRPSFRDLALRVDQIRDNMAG

| SMILES | pIC50 ([1]; TF1 JAK2 V617F) | pKd ([2]; SPR, JAK2 JH2 domain) | pIC50 ([3]; TF1 JAK2 V617F) | pKd (JAK2 JH1 WT (T842-G1132); SPR, JAK2 JH1 domain) | pIC50 [1, 4] | pKd [2] | pIC50 [3, 4] | pKd (JAK2 JH1 WT (T842-G1132)) |
| --- | --- | --- | --- | --- | --- | --- | --- | --- |
| CNC(=O)c1nnc(NC(=O)C2CC2)cc1Nc1cccc(-c2ccc(C(=O)NCc3cccn(C)c3=O)cc2)c1OC [Compound 1] | 5.30 to 6.30 | 8.00 to 11.00 | 5.30 to 6.30 | 5.30 to 6.30 |  |  |  |  |
| COc1c(Nc2cc(NC(=O)C3CC3)nnc2C(N)=O)cccc1-c1ccc(C(=O)N(C)Cc2cc(C#N)ccn2)nc1 [Compound 220] |  |  |  |  | 6.30 to 7.30 | 8.00 to 11.00 | 6.30 to 7.30 | 6.30 to 7.30 |
| CNC(=O)c1nnc(NC(=O)C2CC2)cc1Nc1cccc(-c2cnn(C3CN(Cc4cc(C#N)ccn4)C3)c2)c1OC [Compound 66] | 6.30 to 7.30 | 8.00 to 11.00 | 5.30 to 6.30 | 4.00 to 5.30 |  |  |  |  |
| CNC(=O)c1nnc(NC(=O)C2CC2)cc1Nc1cccc(-c2ccc(C(=O)N(C)Cc3ccn(C)n3)nc2)c1OC [Compound 26] | 6.30 to 7.30 | 8.00 to 11.00 | 6.30 to 7.30 | 4.00 to 5.30 |  |  |  |  |
| CNC(=O)c1nnc(NC(=O)C2CC2)cc1Nc1ccc(C)c(-c2cnn(C3CN(Cc4cc(C#N)ccn4)C3)c2)c1OC [Compound 68] | 5.30 to 6.30 | 8.00 to 11.00 | 5.30 to 6.30 | 4.00 to 5.30 |  |  |  |  |
| CNC(=O)c1nnc(NC(=O)C2CC2)cc1Nc1cccc(-c2ccc(C(=O)N(C)Cc3cccnc3C#N)nc2)c1OC [Compound 136] | 6.30 to 7.30 | 8.00 to 11.00 | 5.30 to 6.30 | 4.00 to 5.30 |  |  |  |  |
| CNC(=O)c1nnc(NC(=O)C2CC2)cc1Nc1cccc(-c2cnc(C(=O)N(C)Cc3cc(C#N)ccn3)cc2C)c1OC [Compound 32] | 5.30 to 6.30 | 8.00 to 11.00 | 5.30 to 6.30 | 4.00 to 5.30 |  |  |  |  |
| CNC(=O)c1nnc(NC(=O)C2CC2)cc1Nc1cccc(-c2cnc(C(=O)NCc3cccn(C)c3=O)nc2)c1OC [Compound 9] | 5.30 to 6.30 | 8.00 to 11.00 | 4.00 to 5.30 | 5.30 to 6.30 |  |  |  |  |
| CNC(=O)c1nnc(NC(=O)C2CC2)cc1Nc1cccc(-c2cnn(C3CN(Cc4ccnc(C)n4)C3)c2)c1OC [Compound 148] | 5.30 to 6.30 | 8.00 to 11.00 | 4.00 to 5.30 | 5.30 to 6.30 |  |  |  |  |
| CNC(=O)c1nnc(NC(=O)C2CC2)cc1Nc1cccc(-c2ccc(C(=O)N(C)Cc3cccn(C)c3=O)cc2)c1OC [Compound 3, 6-(cyclopropanecarboxamido)-4-((2-methoxy-4′-(methyl((1-methyl-2-oxo-1,2-dihydropyridin-3-yl)methyl)carbamoyl)-[1,1′-biphenyl]-3-yl)amino)-N-methylpyridazine-3-carboxamide] | 5.30 to 6.30 | 8.00 to 11.00 | 5.30 to 6.30 | 4.00 to 5.30 |  |  |  |  |
| CNC(=O)c1nnc(NC(=O)C2CC2)cc1Nc1ccc(C)c(-c2ccc(C(=O)N(C)Cc3ccn(C)n3)nc2)c1OC [Compound 34] | 6.30 to 7.30 | 8.00 to 11.00 | 6.30 to 7.30 | 4.00 to 5.30 |  |  |  |  |
| CNC(=O)c1nnc(NC(=O)C2CC2)cc1Nc1cccc(-c2nnc(C3CN(Cc4cccc(C)n4)C3)o2)c1OC [Compound 157] | 4.00 to 5.30 | 8.00 to 11.00 | 4.00 to 5.30 | 4.00 to 5.30 |  |  |  |  |
| CNC(=O)c1nnc(NC(=O)C2CC2)cc1Nc1ccc(C)c(-c2cnc(C(=O)N(C)Cc3ccccn3)c(F)c2)c1OC [Compound 43] | 5.30 to 6.30 | 8.00 to 11.00 | 5.30 to 6.30 | 4.00 to 5.30 |  |  |  |  |
| CNC(=O)c1nnc(NC(=O)C2CC2)cc1Nc1cccc(-c2cnn(C3CN(Cc4cnn(C)c4)C3)c2)c1OC [Compound 44] | 5.30 to 6.30 | 8.00 to 11.00 | 5.30 to 6.30 | 5.30 to 6.30 |  |  |  |  |
| CNC(=O)c1nnc(NC(=O)C2CC2)cc1Nc1cccc(-c2cnc(C(=O)N(C)Cc3ccn(C)n3)c(C#N)c2)c1OC [Compound 92] | 5.30 to 6.30 | 8.00 to 11.00 | 5.30 to 6.30 | 4.00 to 5.30 |  |  |  |  |
| CNC(=O)c1nnc(NC(=O)C2CC2)cc1Nc1cccc(-c2ccc(C(=O)NCc3cccn(C)c3=O)c(C)c2)c1OC [Compound 10] | 5.30 to 6.30 | 8.00 to 11.00 | 5.30 to 6.30 | 4.00 to 5.30 |  |  |  |  |
| CNC(=O)c1nnc(NC(=O)C2CC2)cc1Nc1cccc(-c2ccc(C(=O)NCc3cccn(C)c3=O)nc2)c1OC [Compound 4] | 5.30 to 6.30 | 8.00 to 11.00 | 5.30 to 6.30 | 4.00 to 5.30 |  |  |  |  |
| CNC(=O)c1nnc(NC(=O)C2CC2)cc1Nc1cccc(-c2ccc(C(=O)N(C)Cc3c(C)ccnc3C)nc2)c1OC [Compound 133] | 6.30 to 7.30 | 8.00 to 11.00 | 6.30 to 7.30 | 4.00 to 5.30 |  |  |  |  |
| CNC(=O)c1nnc(NC(=O)C2CC2)cc1Nc1cccc(-c2cnn(C3CN(C(C)=O)C3)c2)c1OC [Compound 301] |  |  |  |  | 4.00 to 5.30 | 6.30 to 7.30 | 4.00 to 5.30 | 4.00 to 5.30 |
| CNC(=O)c1nnc(NC(=O)C2CC2)cc1Nc1cccc(-c2ccc(C(=O)N(C)Cc3nnc(C)s3)nc2)c1OC [Compound 149] | 5.30 to 6.30 | 8.00 to 11.00 | 5.30 to 6.30 | 4.00 to 5.30 |  |  |  |  |
| CNC(=O)c1nnc(NC(=O)C2CC2)cc1Nc1cccc(-c2cnn(C3CN(Cc4cccc(Cl)n4)C3)c2)c1OC [Compound 143] | 6.30 to 7.30 | 8.00 to 11.00 | 6.30 to 7.30 | 4.00 to 5.30 |  |  |  |  |
| CNC(=O)c1nnc(NC(=O)C2CC2)cc1Nc1ccc(C)c(-c2cnc(C(=O)N(C)Cc3cc(C#N)ccn3)c(F)c2)c1OC [Compound 42] | 6.30 to 7.30 | 8.00 to 11.00 | 6.30 to 7.30 | 4.00 to 5.30 |  |  |  |  |
| CNC(=O)c1nnc(NC(=O)C2CC2)cc1Nc1cccc(-c2ccc(C(=O)N(C)Cc3cccnc3)nc2)c1OC [Compound 30] | 6.30 to 7.30 | 8.00 to 11.00 | 6.30 to 7.30 | 4.00 to 5.30 |  |  |  |  |
| CNC(=O)c1nnc(NC(=O)C2CC2)cc1Nc1cccc(-c2ccc(C(=O)N(C)Cc3cc(C(F)F)ccn3)nc2)c1OC [Compound 158] | 6.30 to 7.30 | 8.00 to 11.00 | 6.30 to 7.30 | 4.00 to 5.30 |  |  |  |  |
| CNC(=O)c1nnc(NC(=O)C2CC2)cc1Nc1cccc(-c2cn(C3CN(Cc4cccc(C#N)n4)C3)nc2CO)c1OC [Compound 329] |  |  |  |  | 5.30 to 6.30 | 8.00 to 11.00 | 5.30 to 6.30 | 5.30 to 6.30 |
